Tests used:
Human dermal fibroblasts [1] = test: Cell activity (AlamarBlue) of cells irradiated with UV through a solution of the UV wavelength conversion substance; type: cell-based; details: UV 0 to 100 mJ/cm^2, FIG. 3
Method: The UV wavelength conversion substances (3) and (4) were dispersed in alcohol to prepare 5% and 10% dispersions.
(§1) 1. Human dermal fibroblasts and human skin keratinocytes purchased from Kurabo Industries Ltd. were used. A cell suspension (1 mL) stored in liquid nitrogen was thawed in a water bath (37° C.) to an extent that small ice pellets remained, and then diluted with 9 mL of warm medium. 2. The diluted suspension was mixed gently and then transferred to a T75 flask and incubated overnight at 37° C. 3. The next day, the medium was replaced with 10 mL of fresh medium. 4. The medium was replaced periodically (once every 2 days for fibroblasts and once every 2 to 3 days for keratinocytes) and cell proliferation was continued. Meanwhile, the cells were observed using a microscope, and it was confirmed that the cells grew in the correct form. 5. After the cells reached about 80% confluence, the cells were passaged. The cells were passaged by washing the cells once with 10 mL of warm PBS, adding 5 mL of warm trypsin to a T75 flask, covering the bottom of the flask with a trypsin solution, followed by aspirating at room temperature for 1 minute. 6. The flask was allowed to stand in an oven at 37° C. for (maximum) 2 minutes for fibroblasts and (maximum) 7 minutes for keratinocytes. The cells were observed using a microscope and confirmed to be small and oval. 7. […]

Human dermal fibroblasts [2] = test: Restoration of cell activity decreased by UV irradiation (AlamarBlue); type: cell-based; details: FIG. 5
Method: as §1, with “7. Thereafter, the side of the T75 flask was lightly tapped to release the cells.” for “7.”

C-phycocyanin
cell activity at UV irradiation (relative fluorescence intensity) (Human dermal fibroblasts [1]; 0.4% C-phycocyanin solution): the decrease in cell activity was suppressed | cell activity at UV irradiation (relative fluorescence intensity) (Human dermal fibroblasts [1]; 2% C-phycocyanin solution, compared to no UV irradiation): the cell activity was even increased | cell activity recovery effect, comparison of concentrations (Human dermal fibroblasts [2]; 0.4% versus 2% solution): equivalent at concentrations of 0.4% and 2% | cell activity of cells having activity temporarily reduced (relative fluorescence intensity) (Human dermal fibroblasts [2]; pre-irradiation 400 mJ/cm^2 without substance, then UV 0 to 200 mJ/cm^2 through 0.4% or 2% solution): cell activity was recovered

Source: patent US20220175637A1, “COMPOSITION COTAINING ULTRAVIOLET WAVELENGTH-CONVERTING SUBSTANCE AND HYDROPHOBIZED SILICA AND/OR HYDROPHOBIZED STARCH” (Shiseido Company, Ltd., priority 2019, published 2022)
